In patent US11339171B2, “MDM2 inhibitors” (Gan & Lee Pharmaceuticals, priority 2017, dated 2022):
Several values for one entry are separate records, joined by “and”; a condition that tells them apart may be missing. Equal entries are not always repeated. Where two headings read alike, the source gives them in different places.

How the values were obtained:
MDM2 = target: T1, MDM2 (Homo sapiens, UniProt Q00987); assay: Inhibition test of MDM2-P53 (GST-MDM2, Biotin-P53, Anti-GST-Tb, SA-XL665); format: binding
T1 construct: made in house
T1 sequence (Q00987 whole entry): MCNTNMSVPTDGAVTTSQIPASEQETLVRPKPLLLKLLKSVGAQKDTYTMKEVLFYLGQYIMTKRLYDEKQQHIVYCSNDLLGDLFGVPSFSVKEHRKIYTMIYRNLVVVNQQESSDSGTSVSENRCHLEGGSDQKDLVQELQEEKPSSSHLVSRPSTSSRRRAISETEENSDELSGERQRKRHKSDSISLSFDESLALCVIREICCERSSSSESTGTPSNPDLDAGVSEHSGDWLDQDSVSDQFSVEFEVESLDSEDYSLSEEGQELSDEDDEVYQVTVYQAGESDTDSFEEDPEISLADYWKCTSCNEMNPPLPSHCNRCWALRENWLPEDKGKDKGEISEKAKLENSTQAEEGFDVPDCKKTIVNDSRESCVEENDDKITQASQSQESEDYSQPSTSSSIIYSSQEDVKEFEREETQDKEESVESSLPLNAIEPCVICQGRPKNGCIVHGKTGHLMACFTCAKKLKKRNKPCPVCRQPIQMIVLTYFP
Method in brief: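 Binding was measured by TR-FRET with GST-MDM2 at 4 nM final in PBS with 0.1% BSA, 5 mM DTT and 1 mM AEBSF. Compounds were tested as twelve-point 5-fold dilutions and incubated with the detection mix for 90 min at 25 °C with shaking before plate-reader reading and curve fitting.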

[1] = system: human osteosarcoma cell line SJSA-1; assay: Inhibition of proliferation of human osteosarcoma cell line SJSA-1 (DAPI staining, In Cell Analyzer); settings: Homo sapiens, SJSA-1, 72 h, read-out: IC50 (nM), inhibitory activity on proliferation of human osteosarcoma cell line SJSA-1, SJSA-1, incubated 72 h
[2] = Pharmacokinetics in ICR mice after intravenous and intragastric administration; format: in vivo; settings: for MRT last: read-out: MRT(0-t); for MRT inf: read-out: MRT(0-∞); for Vd: read-out: Vz
Method in brief: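 Plasma concentrations by LC-MS/MS (range 1 to 2000 ng/ml) following single intravenous (2 mg/kg) or oral gavage (5 mg/kg) dosing of fasted male ICR mice, three per group. Vehicle 5% DMSO + 40% PEG400 + 55% (10% HP-β-CD in saline); standard PK parameters including bioavailability calculated.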

[3] = ICR mice, IV 2 mg/kg, individual animal, 2 mg/kg
[4] = ICR mice, PO 5 mg/kg, individual animal, 5 mg/kg
[5] = male, ICR, mouse, plasma, iv, 2 mg/kg, ICR mice, IV 2 mg/kg, individual animal
[6] = male, ICR, mouse, plasma, iv, 2 mg/kg, ICR mice, IV 2 mg/kg, mean of 3 animals
[7] = male, ICR, mouse, plasma, po, 5 mg/kg, ICR mice, PO 5 mg/kg, individual animal
[8] = male, ICR, mouse, plasma, po, 5 mg/kg, ICR mice, PO 5 mg/kg, mean of 3 animals

Question: Which results are given for `CCOc1cc(OC)c(-c2nc3c(n2C(C)C)[C@@]2(C(=O)Nc4cc(Cl)ccc42)N(c2cc(Cl)ccc2F)C3=O)cn1` [Example S-98, (S)-6-chloro-5′-(5-chloro-2-fluorophenyl)-2′-(6-ethoxy-4-methoxypyridin-3-yl)-3′-isopropyl-3′H-spiro[dihydroindole-3,4′-pyrrolo[3,4-d]imidazole]-2,6′(5′H)-dione]?
Answer: IC50 (MDM2): 0.00127 µM; IC50 [1]: 56.1 nM; AUC(0-t) [2, 3]: 8869.53 ng·h/mL and 11177.15 ng·h/mL; AUC(0-∞) [2, 3]: 9108.92 ng·h/mL and 12596.27 ng·h/mL; CL [2, 3]: 3.66 mL/min/kg and 2.65 mL/min/kg; Cmax [2, 3]: 3789.06 ng/mL and 3405.07 ng/mL; MRT(0-t) [2, 3]: 1.43 h and 1.82 h; MRT(0-∞) [2, 3]: 1.60 h and 2.60 h; Vz [2, 3]: 0.37 L/kg and 0.44 L/kg; t1/2 [2, 3]: 1.17 h and 1.93 h; AUC(0-t) [2, 4]: 37288.31 ng·h/mL and 18064.52 ng·h/mL and 23330.62 ng·h/mL; AUC(0-∞) [2, 4]: 19691.36 ng·h/mL and 23352.18 ng·h/mL; Cmax [2, 4]: 3420.72 ng/mL and 2943.86 ng/mL; MRT(0-t) [2, 4]: 3.17 h and 4.72 h; MRT(0-∞) [2, 4]: 3.82 h and 4.74 h; Tmax [2, 4]: 2.00 h; t1/2 [2, 4]: 2.12 h and 2.30 h; AUC(0-inf) [2, 5]: 10500 ng·h/mL; clearance [2, 5]: 3.16 mL/min/kg; AUC(0-t) ([2]; male, ICR, mouse, plasma, iv, 2 mg/kg, ICR mice, IV 2 mg/kg, individual animal, read-out: AUC(0-t)): 10000 ng·h/mL; Cmax ([2]; male, ICR, mouse, plasma, iv, 2 mg/kg, ICR mice, IV 2 mg/kg, individual animal, read-out: Cmax): 3670 ng/mL; MRT last [2, 5]: 1.55 h; MRT inf [2, 5]: 1.86 h; Tmax ([2]; male, ICR, mouse, plasma, iv, 2 mg/kg, ICR mice, IV 2 mg/kg, individual animal, read-out: Tmax): 0.08 h; Vd [2, 5]: 0.39 L/kg; half-life ([2]; male, ICR, mouse, plasma, iv, 2 mg/kg, ICR mice, IV 2 mg/kg, individual animal, read-out: t1/2 (converted)): 1.43 h; AUC(0-inf) [2, 6]: 10700 ng·h/mL; clearance [2, 6]: 3.16 mL/min/kg; AUC(0-t) ([2]; male, ICR, mouse, plasma, iv, 2 mg/kg, ICR mice, IV 2 mg/kg, mean of 3 animals, read-out: AUC(0-t)): 10000 ng·h/mL; Cmax ([2]; male, ICR, mouse, plasma, iv, 2 mg/kg, ICR mice, IV 2 mg/kg, mean of 3 animals, read-out: Cmax): 3620 ng/mL; MRT last [2, 6]: 1.6 h; MRT inf [2, 6]: 2.02 h; Tmax ([2]; male, ICR, mouse, plasma, iv, 2 mg/kg, ICR mice, IV 2 mg/kg, mean of 3 animals, read-out: Tmax): 0.083 h; Vd [2, 6]: 0.4 L/kg; half-life ([2]; male, ICR, mouse, plasma, iv, 2 mg/kg, ICR mice, IV 2 mg/kg, mean of 3 animals, read-out: t1/2 (converted)): 1.51 h; AUC(0-inf) [2, 7]: 37300 ng·h/mL; Cmax ([2]; male, ICR, mouse, plasma, po, 5 mg/kg, ICR mice, PO 5 mg/kg, individual animal, read-out: Cmax): 3840 ng/mL; MRT last [2, 7]: 5.36 h; MRT inf [2, 7]: 5.38 h; Tmax ([2]; male, ICR, mouse, plasma, po, 5 mg/kg, ICR mice, PO 5 mg/kg, individual animal, read-out: Tmax): 4 h; half-life ([2]; male, ICR, mouse, plasma, po, 5 mg/kg, ICR mice, PO 5 mg/kg, individual animal, read-out: t1/2 (converted)): 2.31 h; AUC(0-inf) [2, 8]: 26800 ng·h/mL; AUC(0-t) ([2]; male, ICR, mouse, plasma, po, 5 mg/kg, ICR mice, PO 5 mg/kg, mean of 3 animals, read-out: AUC(0-t)): 26200 ng·h/mL; Cmax ([2]; male, ICR, mouse, plasma, po, 5 mg/kg, ICR mice, PO 5 mg/kg, mean of 3 animals, read-out: Cmax): 3400 ng/mL; MRT last [2, 8]: 4.41 h; MRT inf [2, 8]: 4.65 h; Tmax ([2]; male, ICR, mouse, plasma, po, 5 mg/kg, ICR mice, PO 5 mg/kg, mean of 3 animals, read-out: Tmax): 2.67 h; half-life ([2]; male, ICR, mouse, plasma, po, 5 mg/kg, ICR mice, PO 5 mg/kg, mean of 3 animals, read-out: t1/2 (converted)): 2.24 h; AUC(0-t) ([2]; male, ICR, mouse, plasma, po, 5 mg/kg, oral intragastric administration 5 mg/kg, read-out: AUC0-t): 26200 ng·h/mL; half-life ([2]; male, ICR, mouse, plasma, po, 5 mg/kg, oral intragastric administration 5 mg/kg, read-out: half-life (converted)): 2.24 h; bioavailability ([2]; male, ICR, mouse, plasma, oral intragastric administration 5 mg/kg, read-out: bioavailability): 105%; bioavailability ([2]; male, mouse, plasma, ICR mice, PO 5 mg/kg vs IV 2 mg/kg, from mean values, read-out: F* (bioavailability)): 105%
